Test results reported in patent publication US20230265167A1, “COMPOSITIONS HAVING NEUROREGENERATIVE APPLICATIONS” (GRIFOLS WORLDWIDE OPERATIONS LIMITED, priority 2020, published 2023).
Entries after “also recorded” stand apart in the source; their conditions may differ.

Legend:
[1] = system: primary human brain cortex-derived neural progenitor cells; experiment: Differentiation of primary human neural progenitor cells (β-III-tubulin / GFAP staining); type: cell-based; details: 0.8 mg/mL, 72 hours
Method: Neural progenitor cells maintained as neurospheres were obtained from Lonza (PT-2599). Cells were thawed from a frozen vial of neurospheres and cultured in Human NeuroCult™ NS-A Complete Proliferation media (Stemcell Technologies) for 2 weeks. Neurospheres were dissociated to single cells and plated in Laminin coated wells of assay plates. The neural progenitor cells were seeded in NeuroCult™ NS-A Basal media containing 1/10th concentration of the recommended proliferation supplements, in the absence or presence of ApoTf (0.8 mg/mL) for 72 hours. At the time of analysis, cells were fixed with paraformaldehyde, stained for β-III-tubulin (R&D Systems, MAB1195) and GFAP (Invitrogen, PA3-16727), and imaged on a Molecular Devices Nano imaging instrument. Image analysis was performed by assessing the relative numbers of cells staining positive for β-III-tubulin or GFAP. Values for the indicated conditions are shown with standard deviations as “% β-III-Tubulin Positive” cells (FIG. 2A) or “% GFAP Positive” cells (FIG. 2B).

rat model of stroke = details: vs control rats; cited from earlier work
[2] = system: C57BL/6J mice with transient MCAo; experiment: Rotarod test after transient MCAo; type: in vivo, mouse; details: FIG. 10B, vs saline
Method: C57BL/6J mice (ca. 20 g) were anaesthetized under isoflurane and, after dissection, a 6.0 silicon-coated monofilament suture was inserted into the external carotid artery to occlude the middle cerebral artery (MCAo). The occlusion was carried out for 60 minutes under temperature control.
Only animals with a ‘neuroscore’ of 4 or greater were considered for further testing (n=8-10 animals/group). At six hours post-occlusion, mice were injected daily with 350 mg/kg of Apo-transferrin (i.p.) or an equal volume of saline for a total of seven days, as well as with 50 mg/kg Bromodeoxyuridine (BrdU; Sigma-Aldrich Chemical, St. Louis, Mo.), both articles delivered by intraperitoneal administration. Weight changes were monitored daily.
Mice were prepared as indicated in Example 9 above and were subjected to assessments at 3 days and 1, 2, 3, 4 weeks post-MCAo, as indicated (n=8-10 animals/group). Motor coordination (i.e. equilibrium behavior and locomotor ability as a function of cortico-striatal function) was assessed using a rotarod test. Learning and memory capacity were measured using the NORT (novel object recognition test; for example, Anglada-Huguet et al., 2014, Molecular Neurobiology, vol. 49, pages 784-795; Denninger et al., 2018, J. Vis. Exp., vol. 141, e58593).
The time that it takes an animal to fall (Latency to fall) from the rotarod is shown vs time after MCAo. […]

Substance: apo-transferrin: iron-free form of transferrin protein, obtained and purified from pooled human plasma
- % β-III-Tubulin Positive cells (neurons) ([1]; FIG. 2A): dramatically increases the percentage of cells differentiated to neurons; also recorded: induces primary human neural progenitor cells to become β-III-tubulin protein positive neurons
- % GFAP Positive cells (astrocytes) ([1]; FIG. 2B): dramatically increases; also recorded: GFAP protein positive astrocytes cells
- volume of the infarcted area (neuroprotective effect) (rat model of stroke): decrease in the volume of the infarcted area
- motor and balance skills (Latency to fall from rotarod) [2]: better motor skills; also recorded: increased motor and balance skills
- motor and balance skills (Latency to fall from rotarod) ([2]; listed as apoTf): better overall abilities to remain on the rotarod
